Measured values as given in patent US8722923B2, “Conjugates for treating neurodegenerative diseases and disorders” (Ramot at Tel-Aviv University Ltd., priority 2008, dated 2014).

Tests used:
MPTP acute model mice [1] = assay: Experiment 3: RotaRod test, MPTP acute model (BL-1023*); type: in vivo, C57/BL/6J mice; conditions: day 12, after initiation of treatment, per os
Procedure: Mice were administered the following treatments: saline (Control), MPTP+saline (MPTP), MPTP+L-DOPA 30 mg/kg (MPTP+Dopa), MPTP+L-DOPA 30 mg/kg+GABA 18.4 mg/kg (MPTP+G+D) MPTP+BL1023* 48.4 mg/kg (MPTP+1023 30) and MPTP+BL-1023* 24.2 mg/kg (MPTP+BL1023 15). The MPTP neurotoxin was administered on day 0, with 4 IP injections (each injection contained 20 mg/kg, 5 ml/kg) in saline. The various treatments or saline were administered on day 7, 9, 11 and 13 (total of 4 treatments). Each group of mice (n=10) was subjected to the RotaRod test, on day 6 (before initiation of treatment, FIG. 9A) and day 12 (after initiation of treatment, FIG. 9B) and the observed average duration on Rod, tested three times, are presented.
(§1) Acute model: On day 1, C57/BL mice received 4× […] injections of 20 mg/kg MPTP-HCl (Sigma), dissolved in saline solution, at 2 hours intervals.
RotoRod Test: The test measures and records motor coordination of rats and mice using the natural fear of falling motivation. RotoRod (San Diego Industries, San Diego, Calif., USA) was set on 16 rpm speed and accelerated to maximum speed of 25 rpm. The time until the mouse fall was measured up to maximum 4 minutes. The measurements were performed three times for each mouse and the average was calculated. […] When the animal falls from the rotating rod, the photo beams were broken and the Rota-Rod recorded the animal's latency to fall. […]

[2] = test system: MPTP sub-acute model mice; assay: Experiment 2: observed vitality signs (level of motion, fur appearance), MPTP sub-acute model; type: in vivo, C57/BL/6J mice; conditions: MPTP sub-acute model, per os treatment; for Fur, observer 1: key: Split fur +; Shiny fur +++; for Fur, observer 2: key: Split fur +; Shiny fur +++; for Fur, observer 3: key: Split fur +; Shiny fur +++; for Fur, observer 4: key: Split fur +; Shiny fur +++; for Vitality, observer 3: key: slow motions +; normal motion +++; for Vitality, observer 4: key: slow motions +; normal motion +++
Source text: FIG. […] 6 hereinabove. Six independent observers estimated the level of mice vitality by the level of motion of the mice (light purple, marked vitality) and fur appearance (dark purple). The results are an average of the observers' reports.

[3] = test system: MPTP-Induced Parkinson's Disease Model in Mice; assay: Example 2: MPTP acute toxicity model, tyrosine hydroxylase immunoreactive cells in the SNpc; type: in vivo, mice strain C57/bl; conditions: day 7, MPTP 4 x 20 mg/kg IP day 0, S.C once daily days 0-7, 40 mg/kg L-DOPA or equimolar
Procedure: Mice were administered 4 injections IP of MPTP (each injection contained 20 mg/kg, 5 ml/kg) or saline alone (control) at 2 hours intervals on day 0. Mice were then administered subcutaneously test solutions (TI) (either saline, L-DOPA or BL-1023) once daily throughout the 8 successive treatment days (days 0-7). On day 7, the mice were sacrificed and their brains were removed for immunohistochemistry analysis of the number of tyrosine hyroxylase immunostained cells at the level of the Substantia Nigra (SNpc).
Young adult (7-8 weeks old) male mice strain C57/bl were acclimated for one week prior to MPTP initiation. During acclimation and throughout the entire study duration, animals were housed within a limited access rodent facility and kept in groups of maximum 5 mice in polypropylene cages (23×17×14 cm), fitted with solid bottoms and filled with wood shavings as bedding material. Animals were provided ad libitum a commercial rodent diet and free access to drinking water, supplied to each cage via polyethylene bottles with stainless steel sipper tubes. […]
Immunohistochemistry staining was performed using Rabbit anti tyrosin hydroxylase (1:100). […] Quantitative analysis was effected by counting of immunoreactive cells at the widest dimension of the SNpc lateral to the roots of the third cranial nerve separating medial and lateral SNpc at the level of interpreduncular nucleus.

[4] = 0.16 ionic strength and 25° C.; cited from earlier work
MPTP acute model mice [5] = assay: Experiment 1: open field test, MPTP acute model (AN-490); type: in vivo, C57/BL/6J mice
Procedure: The MPTP neurotoxin was administered on day 0, with 4 IP injections (each injection contained 20 mg/kg, 5 ml/kg) in saline. The various treatments or saline were administered on days 0, 1, 2, 3, 6, 7, 13 and 16. Each group of mice (n=6) was subjected, on days 3, 6, 8 and 16, to the open field test, and the following parameters were scored: the distance moved (FIGS. 2A and 2B), velocity (FIGS. 2C and 2D), time spent immobile (FIGS. 2E and 2F) and time spent in a high level of mobility (FIGS. 2G and 2H; strong mobility) during a period of 20 minutes. FIGS. 2A, 2C, 2E and 2G present the data obtained for the control mice, mice treated with L-DOPA and mice treated with AN-490. FIGS. 2B, 2D, 2F and 2H present the data obtained for control mice or mice treated with MPTP, MPTP with L-DOPA and MPTP with AN-490.
as §1
The open field test measures behavioral responses, locomotor activity, hyperactivity, and exploratory behaviors. Open field test is also used as a measure of anxiety. Mice tend to avoid brightly illuminated, novel, open spaces, so the open field environment acts as an anxiogenic stimulus and allows for measurement of anxiety-induced locomotor activity and exploratory behaviors. The apparatus for the open field test is a square (0.5×0.5 meter) made of white melamine. All activities were recorded by a video camera mounted above the open field and scored in real-time by a motion-recognition software package (Noldus, Holland) that detects and analyzes the movements of the animals. The video image of the open field arena was partitioned into equal-size squares zone. Total distance, average speed, rearing/elongation behavior, and time spent in various parts of the field (e.g. the border areas vs. mid-area) were measured. Testing was carried out in a temperature, noise and light controlled room.

## N[C@@H](Cc1ccc(O)c(O)c1)C(=O)O [L-DOPA, 3,4-dihydroxy-L-phenylalanine]
MPTP acute model mice [1]
  latency in the rotarod test shortened by MPTP: not attenuated
[2]
  Fur, observer 1: +++
  Fur, observer 2: +++
  Fur, observer 3: +++
  Fur, observer 4: +++
  Vitality, observer 3: +++
  Vitality, observer 4: +++
[3]
  Number of TH Cells: 39
[4]
  pKNH3: 9.42
  pKOH: 8.97
MPTP acute model mice [5]; MPTP treated mice, L-DOPA 25 mg/kg or AN-490 67.5 mg/kg by oral gavage, days 3, 6, 8, 16
  motility / motor activity in open field: lower the motility
MPTP acute model mice [5]; mice not treated with MPTP, L-DOPA 25 mg/kg per os, vs naïve mice or equimolar AN-490
  motility in open field (distance moved, velocity, strong mobility, immobility): tendency toward increase in motility
